Measurements: US12104170B2, “Methods for deriving dopaminergic neurons from pluripotent stem cells” (MINERVA BIOTECHNOLOGIES CORPORATION, priority 2020, dated 2024)

B1: WNT3A: beta-catenin agonist added to pluripotent stem cell media at 100 ng/mL for 48 hours before differentiation (protein, UniProt P56704 19-352, looked up)
Protein Wnt-3a: SYPIWWSLAVGPQYSSLGSQPILCASIPGLVPKQLRFCRNYVEIMPSVAEGIKIGIQECQHQFRGRRWNCTTVHDSLAIFGPVLDKATRESAFVHAIASAGVAFAVTRSCAEGTAAICGCSSRHQGSPGKGWKWGGCSEDIEFGGMVSREFADARENRPDARSAMNRHNNEAGRQAIASHMHLKCKCHGLSGSCEVKTCWWSQPDFRAIGDFLKDKYDSASEMVVEKHRESRGWVETLRPRYTYFKVPTERDLVYYEASPNFCEPNPETGSFGTRDRTCNVSSHGIDGCDLLCCGRGHNARAERRREKCRCVFHWCCYVSCQECTRVYDVHTCK

Columns and labels:
[1] = tested on: human iPS cells differentiating to dopaminergic neurons; assay: Addition of forms of vitamin B6 or vitamin A around Day 20 of differentiation (morphology, markers, neural projections); type: cell-based; conditions: for empirically determined optimal concentration: added around Day 20 and onward, final concentration; for effect of adding vitamin B6 form on dopaminergic neurons: added starting around Day 21, retinol, retinyl acetate and vitamin C in all conditions (FIG. 16)
Protocol: In this next set of experiments, we followed Protocol A, except that around Day 20, the neural base media will be exchanged for one that contains approximately 1.2 uM retinol and 0.17 uM retinyl acetate and various other forms of vitamin B6 were then added (FIG. 1, Example 2). Resultant cells were analyzed for cell morphology, yield of TH and DAT positive cells relative to Tuj1 positivity and the number and length of neural projections as an indicator of engraftment potential.
We assessed the effects of various forms of vitamin B6 on differentiation of dopaminergic neurons from human iPS cells. […] The differentiation protocol called Protocol A (FIG. 1) was followed until Day 20. From Day 21 onward, to the basal media was added vitamin A in the form of retinol at 1.2 uM and retinyl acetate at 0.17 uM and vitamin C as ascorbic acid-2-phosphate at a final concentration of about 200 nM. It is important to note that the neural basal media that was used in all conditions contained 10 uM pyridoxal, so pyridoxal at this low concentration was present from the onset of differentiation.
In addition to the vitamins A and C which were constant throughout all conditions, various forms of vitamin B6 were added: 16 uM pyridoxine (FIG. 12A-12K), or 11 uM pyridoxal (FIG. 13A-13K), or 20 uM pyridoxal-5′-phosphate also known as PLP (FIG. 14A-14K), or all of the vitamin Bs. To assess the quality of the resultant dopaminergic neurons we examined: a) the percentage of the GIRK2 positive cells that were also positive for TH, Tyrosine hydroxylase which is an enzyme that mediates the conversion of L-tyrosine to L-3,4-dihydroxyphenylalanine, which is the rate limiting step in dopamine synthesis; this percentage should be high as an indicator of yield of the desired cell type -dopaminergic neurons; b) The percentage of TUJ positive neurons that were also TH positive; TUJ is a pleiotropic marker of neurons; only those that are TH positive are truly dopaminergic neurons; c) the percentage of the TUJ positive cells that are also positive for DAT, the dopamine transporter protein; d) the shape of the cell body should have the characteristic elongated triangular shape of neurons; and e) the length and number of neural projections associated with being TH and DAT positive. For engraftment, the length and number of neural projections is considered to be the most important factor.

[2] = tested on: human iPS cells differentiated to dopaminergic neurons; assay: Immunofluorescent staining for GIRK2, TH, DAT, Tuj1 and morphology (yield and purity of dopaminergic neurons); type: cell-based; conditions: iPSCs grown in E8 plus WNT3A for 48 hours before initiating differentiation
Protocol: On Day 24, immunofluorescent staining was performed to detect the presence of molecular markers of dopaminergic neuron progenitors generated using Protocol A (FIG. 2A-FIG. 2L) or Protocol C.2 (FIG. 3A-FIG. 3L). GIRK2 (G-protein-regulated inward-rectifier potassium channel 2) is expressed in dopaminergic neurons while Tuj1 (neuron-specific class Ill B-tubulin) is a pan-neural marker. TH (tyrosine hydroxylase) is considered a gold standard in the identification of dopaminergic neurons because it is an enzyme that catalyzes the conversion of L-tyrosine to L-3,4-dihydroxyphenylalanine, which is the rate limiting step in dopamine synthesis. DAT (dopamine active transporter) is equally important as it is the transmembrane protein that pumps dopamine from the synapse back into the cytosol. Both differentiation protocols produced cells that were positive for all appropriate molecular markers. […]
In addition to the vitamins A and C which were constant throughout all conditions, various forms of vitamin B6 were added: 16 uM pyridoxine (FIG. 12A-12K), or 11 uM pyridoxal (FIG. 13A-13K), or 20 uM pyridoxal-5′-phosphate also known as PLP (FIG. 14A-14K), or all of the vitamin Bs. […] FIG. 17 is a graph of the amount of dopamine and its metabolites, measured by HPLC, present in the conditioned media from only 200,000 cells taken at Day 30, Day 40, Day 50 or Day 60. […]

Molecule	empirically determined optimal concentration [1]	effect of adding vitamin B6 form on dopaminergic neurons [1]	survival of differentiating cells [2]
Cc1ncc(CO)c(CO)c1O [pyridoxine]	10 to 20 µM	–	–
Cc1ncc(CO)c(C=O)c1O [pyridoxal]	5 to 20 µM	greatly increase dopamine yield and engraftment potential	–
Cc1ncc(COP(=O)(O)O)c(C=O)c1O [pyridoxal-5′-phosphate]	10 to 40 µM	greatly increase dopamine yield and engraftment potential	–
B1	–	–	increased survival at Day 60
